Values quoted from earlier work in US20020194154A1, “Systems, methods and computer program products for integrating biological/chemical databases using aliases” (priority 2001, published 2002).

Details: side effect; text mining of HSDB

CC(C)(C)NCC(O)c1cc(Cl)c(N)c(Cl)c1 (centres unmarked) [clenbuterol]
cardiac arrhythmia: can in some cases cause cardiac arrhythmia
heart rate: increases heart rate
